Assay results taken from patent publication US6417174B1, “Inhibitors of β-lactamases and uses therefor” (Northwestern University, priority 1997, dated 2002).
Like-named read-outs stand apart in the source and are kept apart here.

How the values were obtained:
[1] = target: AmpC β-lactamase from E. coli (Escherichia coli, UniProt P00811); assay: biochemical; type: biochemical
[2] = target: T1, TEM-1 β-lactamase from E. coli (Escherichia coli, UniProt P62593); assay: Inhibition of TEM-1 β-lactamase, spectrophotometric assay (FAP substrate); type: biochemical
T1 construct: gift: Natalie Strynadka, University of Alberta

[3] = test system: β-lactamase derepressed strain of Enterobacter cloacae (Ent-Der); assay: microbe, parasite or virus in culture; type: cell-based; conditions: for MIC of ceftazidime plus inhibitor: Table 3A, proportion 4/1, given as CAZ/inhibitor; for MIC of ceftazidime plus inhibitor / MIC of inhibitor used alone without ceftazidime: Ent. Der.; for MIC of inhibitor used alone without ceftazidime: Table 3B; for MIC of amoxicillin plus inhibitor: Table 4A, proportion 4/1; for MIC of amoxicillin plus inhibitor / MIC of inhibitor used alone without amoxicillin: Ent-Der.; for MIC of inhibitor used alone without amoxicillin: Table 4B, not tested above 128 μg/ml, “256” indicates no inhibition of cell growth; as to MIC of ceftazidime plus inhibitor: values in µg/ml
Protocol: (§1) After incubation, the growth of the cells was visually inspected. The minimum inhibitory concentration (MIC) is the lowest concentration where there no cell growth was observed.
(§2) The following strains were used: Enterobacter cloacae cell line with derepressed β-lactamase production (Ent-Der), and Escherichia coli RYC1000 (araD139 D lacU169 rpsL D rib7 thiA gyrA recA56) cell lines, harboring the plasmid pBGS19 (with no β-lactamase), or the β-lactamase containing plasmids pBGAmpC (AmpC β-lactamase from E. coli; Eco-AmpC), or pBGAmpC-MHN (AmpC β-lactamase from Enterobacter cloacae; Eco-AmpCEnt). […] TEM-10 and TEM-24 differ from TEM-1 due to the following point substitutions: TEM-10 (R164S, E240K); TEM-24 (L102K, L162S, S235T, A237K). TEM-10 and TEM-24 also differ from TEM-1 in being extended spectrum enzymes (i.e., they react with a greater range of substrates than TEM-1). Also tested were clinical isolates of Pseudomonas aeruginosa. All bacterial strains and plasmids are available from Jesus Blazquez and Fernando Baquero, Servicio de Microbiologia, Hospital Ramon y Cajal, National Institute of Health, Madrid, Spain.
(§3) Several ratios, including 1:1, 2:1, 4:1, and 1:3, of β-lactam antibiotic (amoxicillin (AX) or ceftazidime (CAZ)) to boronic acid compound were used in the assays. Tazobactam (TAZO), a clinically used β-lactamase inibitor, was used as a positive control.

[4] = test system: E. coli RYC1000 harboring plasmid pBGS19 (no β-lactamase); assay: microbe, parasite or virus in culture; type: cell-based, Escherichia coli; conditions: for MIC of ceftazidime plus inhibitor: Table 3A, proportion 4/1; for MIC of ceftazidime plus inhibitor / MIC of inhibitor used alone without ceftazidime: pBGS19; for MIC of inhibitor used alone without ceftazidime: Table 3B; for MIC of inhibitor used alone without amoxicillin: Table 4B, EC, not tested above 128 μg/ml, “256” indicates no inhibition of cell growth
Protocol: as §1, §2, §3

[5] = test system: E. coli RYC1000 harboring plasmid pBGTEM-24 (TEM-24 β-lactamase); assay: microbe, parasite or virus in culture; type: cell-based, Escherichia coli; conditions: for MIC of ceftazidime plus inhibitor: Table 3A, proportion 4/1, given as CAZ/inhibitor; for MIC of inhibitor used alone without ceftazidime: Table 3B; as to MIC of ceftazidime plus inhibitor: values in µg/ml
Protocol: as §1, §2, §3

[6] = test system: E. coli RYC1000 harboring plasmid pBGAmpC-MHN (AmpC β-lactamase of Enterobacter cloacae); assay: microbe, parasite or virus in culture; type: cell-based, Escherichia coli; conditions: for MIC of ceftazidime plus inhibitor: Table 3A, proportion 4/1, given as CAZ/inhibitor; for MIC of ceftazidime plus inhibitor / MIC of inhibitor used alone without ceftazidime: AmpC-MHN; for MIC of inhibitor used alone without ceftazidime: Table 3B; for MIC of amoxicillin plus inhibitor: Table 4A, EC-AmpCEn, proportion 4/1; for MIC of inhibitor used alone without amoxicillin: Table 4B, ECAmpCEn, not tested above 128 μg/ml, “256” indicates no inhibition of cell growth; as to MIC of ceftazidime plus inhibitor: values in µg/ml
Protocol: as §1, §2, §3

[7] = test system: E. coli RYC1000 harboring pBGAmpC-E. coli producing AmpC (ECR-AmpCEc); assay: microbe, parasite or virus in culture; type: cell-based, Escherichia coli; conditions: ECR-AmpCEc; for MIC of amoxicillin plus inhibitor: Table 4A, proportion 4/1; for MIC of inhibitor used alone without amoxicillin: Table 4B, not tested above 128 μg/ml, “256” indicates no inhibition of cell growth
Protocol: as §1, §2, §3

[8] = test system: E. coli RYC1000 harboring a plasmid coding for a mutant of AmpC from Enterobacter (ECR-AmpCEnM); assay: microbe, parasite or virus in culture; type: cell-based, Escherichia coli; conditions: for MIC of amoxicillin plus inhibitor: Table 4A, ECR-AmpCEnM, proportion 4/1; for MIC of inhibitor used alone without amoxicillin: Table 4B, ECRAmpCEnM, not tested above 128 μg/ml, “256” indicates no inhibition of cell growth
Protocol: as §1, §2, §3

[9] = test system: E. coli RYC1000 harboring pBGTEM-10 producing TEM-10 β-lactamase (EC-T10); assay: microbe, parasite or virus in culture; type: cell-based, Escherichia coli; conditions: EC-T10; for MIC of amoxicillin plus inhibitor: Table 4A, proportion 4/1; for MIC of inhibitor used alone without amoxicillin: Table 4B, not tested above 128 μg/ml, “256” indicates no inhibition of cell growth
Protocol: as §1, §2, §3

[10] = test system: E. coli RYC1000 harboring pBGTEM-1 producing TEM-1 β-lactamase (EC-T1); assay: microbe, parasite or virus in culture; type: cell-based, Escherichia coli; conditions: EC-T1; for MIC of amoxicillin plus inhibitor: Table 4A, proportion 4/1; for MIC of inhibitor used alone without amoxicillin: Table 4B, not tested above 128 μg/ml, “256” indicates no inhibition of cell growth
Protocol: as §1, §2, §3

[11] = Table 5, as described in Example 2, read-out: Ki AmpC
[12] = Tables 2A/2B, pH 7.0, 25° C., 100 μM FAP, N.I. = no inhibition observed at an inhibitor concentration of 100 μM, read-out: Ki E. coli TEM-1
[13] = pH 7, read-out: Ki E. coli AmpC
[14] = Tables 2A/2B, pH 7.0, 25° C., 100 μM cephalothin, read-out: Ki E. coli AmpC

Sequence of AmpC β-lactamase from E. coli (P00811 20-377): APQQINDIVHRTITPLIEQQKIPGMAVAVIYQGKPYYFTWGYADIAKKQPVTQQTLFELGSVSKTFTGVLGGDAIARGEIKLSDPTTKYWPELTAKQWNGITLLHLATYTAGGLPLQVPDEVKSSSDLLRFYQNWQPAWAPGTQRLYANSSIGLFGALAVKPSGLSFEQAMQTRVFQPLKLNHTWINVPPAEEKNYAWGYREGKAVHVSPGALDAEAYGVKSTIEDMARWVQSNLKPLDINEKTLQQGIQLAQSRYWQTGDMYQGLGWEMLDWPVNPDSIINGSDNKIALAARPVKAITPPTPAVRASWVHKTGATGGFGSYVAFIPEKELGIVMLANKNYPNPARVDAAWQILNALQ
T1 sequence (P62593 24-286 limits assumed): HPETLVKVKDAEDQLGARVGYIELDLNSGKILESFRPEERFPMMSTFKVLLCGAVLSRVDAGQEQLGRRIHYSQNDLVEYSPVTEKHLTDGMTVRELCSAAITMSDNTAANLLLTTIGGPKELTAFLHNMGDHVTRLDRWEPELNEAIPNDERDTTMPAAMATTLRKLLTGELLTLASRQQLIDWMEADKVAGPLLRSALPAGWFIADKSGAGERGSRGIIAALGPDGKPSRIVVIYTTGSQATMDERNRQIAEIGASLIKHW

How did the Ki [1, 11] turn out when `OB(O)c1ccc2[nH]ccc2c1` was run?
The Ki was 10.9 ± 0.6 µM.

`OB(O)c1ccsc1` [TH3B, thiopene-3-boronic acid] was tested. Which Ki [2, 12] did it give?
Its Ki is 100 µM.

What about the Ki [1, 13] of the same molecule?
Its Ki is 17 µM.

What about the Ki ([1]; read-out: Ki for AmpC) of the same molecule?
The Ki was 22.1 ± 3.5 µM.

Which results are given for `OB(O)c1ccc(B(O)O)cc1` [B14DA]?
Ki [2, 12]: 40 µM; Ki [1, 13]: 6.9 µM

Which “MIC of ceftazidime plus inhibitor” value [3] does the source give for `Oc1ccc(N=Nc2ccc(Br)cc2)cc1B1OB(c2cc(N=Nc3ccc(Br)cc3)ccc2O)OB(c2cc(N=Nc3ccc(Br)cc3)ccc2O)O1` [4BPAPB, 2,4,6-tris(β-(4-bromophenylazo)-2-hydroxyphenyl) boroxin] here?
Its value is 512/128.

And the “MIC of inhibitor used alone without ceftazidime” value [3]?
Its value is over 512 µg/mL.

What about the Ki [2, 12] of the same molecule?
Its Ki is 1.2 µM.

What about the “MIC of ceftazidime plus inhibitor” value [4] of the same molecule?
Its value is under 0.25 µg/mL.

What about the “MIC of inhibitor used alone without ceftazidime” value [4] of the same molecule?
The value was 128 µg/mL.

What about the “MIC of ceftazidime plus inhibitor” value [5] of the same molecule?
The value was 256/64.

What about the “MIC of inhibitor used alone without ceftazidime” value [5] of the same molecule?
The value was 256 µg/mL.

What about the “MIC of ceftazidime plus inhibitor” value [6] of the same molecule?
The value was 8/2.

What about the “MIC of inhibitor used alone without ceftazidime” value [6] of the same molecule?
Its value is 256 µg/mL.

What about the Ki [1, 13] of the same molecule?
The Ki was 7.2 µM.

For `OB(O)c1ccc2c(c1)OCO2`, which Ki [1, 11] is on record?
Its Ki is 53.4 ± 6.1 µM.

Which Ki ([1]; Example 1, read-out: Ki for AmpC) does the source give for `OB(O)c1ccc2ccccc2c1` [2-naphthylboronic acid] here?
The Ki was 8.5 ± 1.8 µM.

With `OB(O)c1cc2ccccc2o1` [BZBF2B, benzo[b]furan-2-boronic acid] as the molecule, how does the Ki [2] read?
Its Ki is 8 µM.

What about the “activity relative to furan-2-boronic acid parent (AmpC)” value [1] of the same molecule?
The value was “about 1000 fold”.

What about the Ki ([1]; Ki E. coli AmpC) of the same molecule?
Its Ki is 0.07 µM.

With `O=Cc1ccc(B(O)O)cc1` [4FORMB, 4-formylphenylboronate, reference compound] as the molecule, how does the Ki [2, 12] read?
Its Ki is 35 µM.

And the Ki [1, 14]?
The Ki was 2.8 µM.

With `O=Cc1ccsc1B(O)O` [3FTH2B, 3-formylthiophene-2-boronic acid] as the molecule, how does the “Ki E. coli TEM-1” value ([2]; Tables 2A/2B, pH 7.0, 25° C., 100 μM FAP, N.I. = no inhibition observed at an inhibitor concentration of 100 μM) read?
Its value is “N.I”.

What about the Ki [1, 14] of the same molecule?
Its Ki is 3.5 µM.

`OB(O)c1cccs1` [TH2B, thiophene-2-boronic acid] was tested. Which “MIC of ceftazidime plus inhibitor” value [3] did it give?
Its value is 32/8.

What about the “MIC of inhibitor used alone without ceftazidime” value [3] of the same molecule?
The value was 256 µg/mL.

What about the “MIC of amoxicillin plus inhibitor” value [3] of the same molecule?
Its value is 64 µg/mL.

And the “MIC of inhibitor used alone without amoxicillin” value [3]?
Its value is 128 µg/mL.

And the Ki [2]?
Its Ki is 31 µM.

What about the “MIC of ceftazidime plus inhibitor” value [4] of the same molecule?
The value was under 0.25 µg/mL.

And the “MIC of inhibitor used alone without ceftazidime” value [4]?
Its value is 128 µg/mL.

What about the “MIC of inhibitor used alone without amoxicillin” value [4] of the same molecule?
Its value is 64 µg/mL.

What about the “MIC of ceftazidime plus inhibitor” value [5] of the same molecule?
Its value is 128/32.

And the “MIC of inhibitor used alone without ceftazidime” value [5]?
The value was 128 µg/mL.

What about the “MIC of ceftazidime plus inhibitor” value [6] of the same molecule?
Its value is 8/2.

What about the “MIC of inhibitor used alone without ceftazidime” value [6] of the same molecule?
Its value is 128 µg/mL.

What about the “MIC of amoxicillin plus inhibitor” value [6] of the same molecule?
Its value is 32 µg/mL.

What about the “MIC of inhibitor used alone without amoxicillin” value [6] of the same molecule?
Its value is 128 µg/mL.

What about the “MIC of amoxicillin plus inhibitor” value [7] of the same molecule?
The value was 64 µg/mL.

What about the “MIC of inhibitor used alone without amoxicillin” value [7] of the same molecule?
Its value is 128 µg/mL.

And the “MIC of amoxicillin plus inhibitor” value [8]?
Its value is 32 µg/mL.

What about the “MIC of inhibitor used alone without amoxicillin” value [8] of the same molecule?
Its value is 64 µg/mL.

What about the “MIC of amoxicillin plus inhibitor” value [9] of the same molecule?
Its value is 256 µg/mL.

And the “MIC of inhibitor used alone without amoxicillin” value [9]?
Its value is 128 µg/mL.

And the “MIC of amoxicillin plus inhibitor” value [10]?
Its value is 128 µg/mL.

What about the “MIC of inhibitor used alone without amoxicillin” value [10] of the same molecule?
The value was 64 µg/mL.

With `OB(O)[C@H]1CCOC1` [(S)-3-tetrahydrofuranylboronic acid] as the molecule, how does the Ki ([1]; read-out: Ki for AmpC) read?
The Ki was 15.8 ± 0.8 µM.

With `OB(O)c1cc(N=Nc2cccc(C(F)(F)F)c2)ccc1O` [HFAB, 2-hydroxy-5-(3-(trifluoromethyl)phenylazo) benzeneboronic acid] as the molecule, how does the Ki [1, 14] read?
The Ki was 1.3 µM.

For `Cc1csc(B(O)O)c1`, which Ki [1, 11] is on record?
Its Ki is 0.5 ± 0.05 µM.

How did the “MIC of ceftazidime plus inhibitor” value [3] turn out when `C[C@]1(Cn2ccnn2)[C@H](C(=O)O)N2C(=O)C[C@H]2S1(=O)=O` [TAZO, Tazobactam, reference compound] was run?
The value was 32/8.

And the “MIC of amoxicillin plus inhibitor” value [3]?
Its value is 128 µg/mL.

What about the “MIC of inhibitor used alone without amoxicillin” value [3] of the same molecule?
The value was 256 µg/mL.

And the “MIC of ceftazidime plus inhibitor” value [4]?
The value was under 0.25 µg/mL.

What about the “MIC of inhibitor used alone without amoxicillin” value [4] of the same molecule?
Its value is 32 µg/mL.

And the “MIC of ceftazidime plus inhibitor” value [5]?
The value was 8/2.

And the “MIC of ceftazidime plus inhibitor” value [6]?
The value was 4/1.

And the “MIC of amoxicillin plus inhibitor” value [6]?
The value was 16 µg/mL.

What about the “MIC of inhibitor used alone without amoxicillin” value [6] of the same molecule?
Its value is 64 µg/mL.

And the “MIC of amoxicillin plus inhibitor” value [7]?
Its value is 32 µg/mL.

What about the “MIC of inhibitor used alone without amoxicillin” value [7] of the same molecule?
Its value is 64 µg/mL.

What about the “MIC of amoxicillin plus inhibitor” value [8] of the same molecule?
The value was 16 µg/mL.

What about the “MIC of inhibitor used alone without amoxicillin” value [8] of the same molecule?
The value was 64 µg/mL.

And the “MIC of amoxicillin plus inhibitor” value [9]?
The value was 4 µg/mL.

What about the “MIC of inhibitor used alone without amoxicillin” value [9] of the same molecule?
The value was 64 µg/mL.

What about the “MIC of amoxicillin plus inhibitor” value [10] of the same molecule?
Its value is 8 µg/mL.

What about the “MIC of inhibitor used alone without amoxicillin” value [10] of the same molecule?
Its value is 32 µg/mL.

With `OB(O)[C@@H]1CCOC1` [(R)-3-tetrahydrofuranyl-boronic acid] as the molecule, how does the Ki ([1]; read-out: Ki for AmpC) read?
Its Ki is 1.4 ± 0.1 µM.

For `CN1C(=O)/C(=N\Nc2cccc(B(O)O)c2)c2ccccc2C1=O`, which Ki [1, 11] is on record?
The Ki was 0.075 µM.
